The subject of this assay is MPA bound to plasma proteins in normal human plasma pool (NHP). Description: EMIT-type enzyme immunoassay for MPA with o-anisic acid in Reagent A: quantitation of MPA spike in NHP versus protein-free PBS. Particulars: average of two spikes, formulation with o-anisic acid, pooled sd 0.4 μg/mL. On the procedure:
Reagent A was prepared by first making an anisic acid solution. Anisic acid was dissolved in 1 N NaOH in an amount equal to 25 mL per 1.52 grams of anisic acid. In a separate container was weighed 70% of the final weight of deionized water, to which was added components 1 through 5 inclusive and also component 6 using the prepared solution of Pluronic®25R2 at 10 mL thereof per 1017.9 g (or 1.0 liter) of final solution. This solution was stirred and the anisic acid solution was added. If necessary, the pH of the preparation was adjusted within the range of 5.50 to 5.70 with 6 N NaOH. Next, components 8 and 9 were added and the solution was stirred. If necessary, the pH was adjusted to the above range. […]
For Reagent B deionized water was weighed in an amount equal to 80% of the final weight. […] The conjugate, component 19, was added to achieve a rate of 300±10 mA/min; rate is defined as the change in absorbance at 340 nm per minute of reaction time and is usually expressed as mA/min.
Rates were determined on a Cobas Mira Plus® instrument (Roche Diagnostics Systems, Inc., Branchburg, N.J.). […] During the assay, absorbance readings at 340 nm were made at the end of every cycle. A best linear fit was then made using only the 12 consecutive absorbance readings of cycles 14 through 25 versus time in minutes. […]

We go through one compound from patent US6887669B1, “Reagents for assays for ligands” (Dade Behring Marburg GmbH, priority 1996, dated 2005).

Molecules are shown by their SMILES.

Turning to `COc1ccccc1C(=O)O` [o-AA, o-methoxybenzoic acid], the “quantitation of a 10 μg/mL MPA spike in normal human plasma pool (NHP)” value is 10.2 µg/mL. The “quantitation of a 10 μg/mL MPA spike in PBS” value (protein-free PBS) is 10.4 µg/mL.
